Source: US20240261465A1, “METHOD OF STOPPING BLEEDING USING NANOFIBROUS PEPTIDE HYDROGELS AS HEMOSTASIS AGENT” (KING ABDULLAH UNIVERSITY OF SCIENCE AND TECHNOLOGY, priority 2021, published 2024)
Non-standard residues stand in square brackets, D forms with d. No end group written: not given here. Cha = N[C@@H](CC1CCCCC1)C(=O)O

Key:
[1] = Determination of gelation time by coagulation meter; format: physicochemical; settings: for gelation time, effect of temperature: 37° C. versus 25° C., FIGS. 1 and 2; for onset of gelation: different temperatures, different concentrations, FIGS. 3 and 4
Protocol: In one embodiment, the nanofiber formation of the self-assembling peptides is affected by concentration of the peptide solution (Luo, Z., S. Wang, and S. Zhang, Fabrication of self-assembling D-form peptide nanofiber scaffold d-EAK16 for rapid hemostasis. Biomaterials, 2011. 32(8): p. 2013-2020). The gelation time of different peptides at various concentrations was recorded using a coagulation meter. FIGS. 1 and 2 illustrate the gelation time of two peptides with different concentrations at two different temperatures (25° C., 37° C.). As shown in both FIGS. 1 and 2, as the concentration of peptide increases, the required time for gelation decreases.
In one embodiment, the peptide gelation is impacted by temperature. […] This effect can be explained by the increasing of kinetic energy which is helps in bond formation within molecules enabling the peptide solution to form gels faster at 37° C. than at 25° C.
In one embodiment, the gelation time is impacted by temperature.
In this study, onset of gelation was assessed using coagulation meter MC 10 PLUS (MERLIN® Medical, Germany). The peptide solution at different concentrations was used and checked under various conditions. For the coagulation experiment, 300 μl of peptide solution was added into a tube and placed in the preheated position for 50 seconds before adding 30 μl of PBS. The time at which the gel formed was then recorded. The temperature was chosen in advance and all solutions were incubated at the desired temperature before conducting the measurements.

plasma = assay: Blood coagulation test (aPTT), normal plasma; settings: peptide solution mixed with plasma, 37° C., control without peptides around 40 seconds
Protocol: In one embodiment, an application of the peptide-based hemostatic material in the present disclosure to the bleeding wound produces a coagulation time of less than 40 seconds. The coagulation time of normal plasma (without self-assembling peptides) and plasma with IVZK (SEQ ID NO. 2) or IVFK (SEQ ID NO. 1) hydrogels as initiators for clot formation was compared using a partial thromboplastin time (aPTT) test. The hemostatic properties of the peptides were evaluated by measuring the coagulation time after mixing the peptide solution with plasma. […] The coagulation time of the control (without self-assembling peptides) was around 40 seconds, which is within the normal range.
The aPTT test was performed in a coagulation meter MC 10 PLUS (MERLIN® Medical, Germany). First, 100 μL of plasma was incubated at 37° C., followed by adding 100 μL of a-PTT reagent. Then, the plasma-reagent mixture was incubated at 37° C. for 5 minutes (activation time). Finally, 100 μL of pre-warmed […] calcium chloride was added and time clot formation was recorded. In experimental group, 150 μL of plasma was pre-warmed and then 150 μL of peptide solution was added and the time was recorded. Each test was conducted at least three times.

Human platelets = assay: Surface coating and platelet adhesion; format: cell-based; settings: fluorescence microscopy images, FIG. 23; for platelet adhesion: coated surface
Excerpt: In one embodiment, the self-assembling peptides induce platelet adhenrance. In a preferred embodiment, the self-assembling peptides induce more platelet adhenrance than collagen. One important factor for accelerating blood coagulation could be by promoting the recruitment and adherence of platelets to the site of injury as these processes play a critical role in primary hemostasis (O'Shaughnessy, D. and R. Gill, 19 Cardiothoracic surgery. Practical Hemostasis and Thrombosis, 2009: p. 194). Therefore, platelet adherence induced by peptide hydrogels, type I collagen (positive control), and bovine serum albumin (BSA) (negative comtrol) was tested and compared. […] The scale bar in FIG. 23 is 100 μm. […] The level of platelet adhesion induced by peptide hydrogels, type I collagen (positive control) was also quantified, as shown in FIG. 24. According to FIG. 24, the level of platelet adhesion induced by peptide hydrogels is even higher than that of collagen. […] Therefore, our peptides induced platelet adhesion, a process that may help trigger the coagulation system.
The procedure was done as described previously (Chen, C., et al., Hydrogelation of the short self-assembling peptide 13QGK regulated by transglutaminase and use for rapid hemostasis. ACS applied materials & interfaces, 2016. 8(28): p. 17833-17841). Briefly, for surface coating. 200 μL of 6 mM IVFK (SEQ ID NO. 1), 6 mM IVZK (SEQ ID NO. 2), 0.5% (w/v), BSA (PBS, pH 7.4), and 0.01 mg/mL type I collagen (PBS, pH 7.4) solutions were added to the wells of a 96-well black plate and incubated at 4° C. for 24 h. The wells were washed three times with PBS after removing these solutions. Human platelets were isolated from whole human blood containing anticoagulant sodium citrate (0.38%, w/v) as described previously(Chen, C., et al., Hydrogelation of the short self-assembling peptide 13QGK regulated by transglutaminase and use for rapid hemostasis. ACS applied materials & interfaces, 2016. 8(28): p. 17833-17841). The blood collection was approved by IBEC (18IBEC143). Briefly, platelet-rich plasma (PRP) was collected by centrifugation at 200×g for 20 min at 25° C. Then, PRP was diluted at a 1:1 ratio with PBS and subjected to second centrifugation at 800×g for 12 min at 25° C. The isolated platelets were washed three times with Tyrode's buffer (Hepes 20 mM, glucose […], BSA 1 mg/mL, NaH2PO4 3.3 mM, NaCl 137 mM, KCl 2.7 mM), followed by staining with calcein-AM (1 μg/mL) for 30 min in the dark at room temperature to stained platelets. After washing twice with PBS, the stained platelets were added into the coated wells and incubated for 1 h at 37° C. Subsequently, the supernatants were removed, and the unbound platelets were discarded by washing three times with PBS. The fluorescence of adherent platelets was measured by fluorescence microscopy.

Row | Substance | gelation time, effect of temperature [1] | onset of gelation [1] | coagulation (clotting) time (plasma) | platelet adhesion (Human platelets) | level of platelet adhesion relative to collagen (positive control) (Human platelets)
1 | IVFK: tetrameric self-assembling ultrashort peptide IVFK (SEQ ID NO. 1), forms nanofibrous hydrogel | faster gelation at 37 °C | occurs faster with the increase of temperature | around 5 seconds | considerable platelet adhesion | comparable to that on the surface of collagen
2 | IVZK: tetrameric self-assembling ultrashort peptide IVZK (SEQ ID NO. 2), forms nanofibrous hydrogel (IV[Cha]K) | faster gelation at 37 °C | occurs faster with the increase of temperature | around 5 seconds | considerable platelet adhesion | comparable to that on the surface of collagen
3 | bovine serum albumin [BSA, reference compound] | – | – | – | little platelet adhesion | –
